According to publication PMC6212553, “Baicalein Enhances the Oral Bioavailability and Hepatoprotective Effects of Silybin Through the Inhibition of Efflux Transporters BCRP and MRP2” (Frontiers in Pharmacology, 2018):
Where two headings read alike, the source gives them in different places.

What was measured:
[1] = Bidirectional transport of silybin across Caco-2 cell monolayers; assay type: in vitro ADME, Human; details: human
Procedure: Human colon epithelial cell line (Caco-2) was purchased from American Type Culture Collection (Manassas, VA, United States) and frozen at -80°C. Wild type MDCK II, MDR1-MDCK II, BCRP-MDCK II, and MRP2-MDCK II cells were kindly supplied by the Netherlands Cancer Institute (Amsterdam, Netherlands). Transport study was carried out with Caco-2 cells, and MDCK II cells were transfected using a previously established method with slight modifications ([Yuan et al., 2017]). The Caco-2 cells were cultured at 37°C/5% CO2 in Dulbecco's modified Eagle's medium (DMEM) supplemented with 10% fetal bovine serum, 1% nonessential amino acids, and 1% penicillin-streptomycin. The Caco-2 cells were seeded onto polyester filter membranes in a 12-well Transwell® plate (Corning Costar Co., NY, United States) with 0.6 × 10^5 cells/cm^2. The monolayer cells were used for transport assays between 21 and 23 days. The MDCKII cells were seeded on transwell plates with a density of 2.0 × 10^5 cells/cm^2 and grown for 4-5 days to form a confluent monolayer. Bidirectional transport assays for Caco-2 and MDCK II cells were performed by adding silybin (10 μM) in assay buffer into either the apical (AP; A-to-B) or basolateral (BL; […] For inhibition studies, Caco-2 or MDCK II cell monolayers in both apical and basolateral chambers were preincubated with the inhibitor for 30 min. The fluorescence intensity of the sample collected from the AP or BL side was immediately detected in a 96-well black plate by the Microplate UV/VIS spectrophotometer (TECAN Infinite […], Männedorf, Switzerland). For liquid chromatography tandem-mass spectrometry (LC-MS/MS) analysis, the sample (100 μl) was mixed with methanol (50 μl) containing internal standard (25 ng/ml) and was stored at -80°C. The formula for calculating apparent permeability coefficient (Papp) values is as follows: (1) […] where dQ/dt (mM/s) represents the rate of permeation of the drug across the cells, C0 (mM) refers to the concentration in the donor compartment at time zero calculated from dosing solution, and A (cm^2) refers to the area of the cell monolayer. Papp (B-A) is the Papp value measured in the B to A direction, and Papp (A-B) is the Papp value measured in the A to B direction. The efflux ratio is given as ER = Papp (B to A)/Papp (A to B).

[2] = Stability of SBA and SBB in plasma QC samples; assay type: in vitro ADME, rat; details: three freeze–thaws, long-term, short-term, post-preparative
Procedure: Next, we wanted to investigate the effect of baicalein on the PKs of silybin in vivo. A validated analytical method for the determination of silybin and its total conjugates in rat plasma by LC-MS was developed based on a previous report with minor modifications ([Yuan et al., 2017]). […] The results of precision and accuracy for intra- and inter-day evaluation are presented in Supplementary Table S2. The lower limit of quantification (LLOQ) was 5 ng/ml with relative standard deviation (RSD) ≤6.4%. The RSD values of quality control (QC) samples examined for precision were within 6.4%, while the accuracy ranged from 91.7 to 109.5%. It can be seen from Supplementary Table S2 that the extraction recoveries of silybin A and B were above 84.4% in plasma. Stability of SBA and SBB in plasma was also tested using QC samples at four different concentrations in the stability tests of three freeze–thaws, long-term, short-term, and post-preparative.
S. Table 1.Calibration curves for determination of S Ba, and S Bb in plasm a samples.
Cpd. Standard curv es R2 R ange
S. Table 2.P recision,accurac y and recover y for determination of S Ba, and S Bb in […]
S. Table 3. Stabilit y t esting results for determination of SBa, and S Bb in plasma […]
Initial a Freeze- thaw b Short-t e r m b Long- t e r m b Post-Prep. b […]
a. Contents of silybin and tangeretin in the freshly prepared QC samples. b. […]

[3] = Caco-2, silybin 10 μM, co-treatment with baicalein 5 μM, read-out: efflux ratio
[4] = Caco-2 model, silybin alone, read-out: mean efflux ratio

Structure (SMILES) | efflux ratio at 180 min, 10 μM [1, 3] | efflux ratio at 180 min, 10 μM [1, 4] | stability in plasma [2]
COc1cc([C@@H]2Oc3cc([C@H]4Oc5cc(O)cc(O)c5C(=O)[C@@H]4O)ccc3O[C@H]2CO)ccc1O [silybin B] | 2.33 ± 0.09 | 5.13 | without significant loss
COc1cc([C@H]2Oc3cc([C@H]4Oc5cc(O)cc(O)c5C(=O)[C@@H]4O)ccc3O[C@@H]2CO)ccc1O [silybin A] | 2.38 ± 0.27 | 5.62 | without significant loss
